Measurements taken from patent US7737167B2, “2-amino benzimidazole derivatives and their use as modulators of small-conductance calcium-activated potassium channels” (Neurosearch A/S, priority 2004, dated 2010).
Counter-ions that a name gives are not always drawn.

Structure (SMILES) | melting point [°C]
c1ccc(C(CNc2nc3ccccc3[nH]2)c2ccccc2)cc1 (as salt: HCl) [Example 1, N-(Benzimidazol-2-yl)-2,2-diphenylethylamine] | 153.5 to 154.5
c1ccc(C(CCNc2nc3ccccc3[nH]2)c2ccccc2)cc1 (as salt: HCl) [Example 4, N-(Benzimidazol-2-yl)-3,3-diphenylpropylamine] | 136.5 to 137.5
CC1CCC(Nc2nc3ccccc3[nH]2)c2ccccc21 (stereo not shown) (as salt: HCl) [Example 20, N-(Benzimidazol-2-yl)-4-methyl-1,2,3,4-tetrahydro-1-naphthylamine] | 276
Fc1ccc(C(CNc2nc3ccccc3[nH]2)c2ccc(F)cc2)cc1 [Example 2, N-(Benzimidazol-2-yl)-2,2-bis(4-fluorophenyl)ethylamine] | 155 to 157
Clc1ccc(C(CNc2nc3ccccc3[nH]2)c2ccc(Cl)cc2)cc1 [Example 3, N-(Benzimidazol-2-yl)-2,2-bis(4-chlorophenyl)ethylamine] | 189 to 190
c1ccc2c(c1)CC(Nc1nc3ccccc3[nH]1)C2 [Example 6, N-(Benzimidazol-2-yl)-2-indanylamine] | 246 to 249
c1ccc(C(Nc2nc3ccccc3[nH]2)c2ccccc2)cc1 [Example 11, N-(Benzimidazol-2-yl)benzhydrylamine] | 255 to 258
Clc1ccc(C(Nc2nc3ccccc3[nH]2)c2ccccc2)cc1 (stereo not shown) [Example 12, N-(Benzimidazol-2-yl)-4-chlorobenzhydrylamine] | 180 to 184
Clc1ccc(C(Nc2nc3ccccc3[nH]2)c2ccc(Cl)cc2)cc1 [Example 13, N-(Benzimidazol-2-yl)-4,4′-dichlorobenzhydrylamine] | 176 to 180
Fc1ccc(C(Nc2nc3ccccc3[nH]2)c2ccc(F)cc2)cc1 [Example 14, N-(Benzimidazol-2-yl)-4,4′-difluorobenzhydrylamine] | 241 to 243
CC1CCc2ccccc2C1Nc1nc2ccccc2[nH]1 (stereo not shown) [Example 18, N-(Benzimidazol-2-yl)-2-methyl-1,2,3,4-tetrahydro-1-naphthylamine] | 256 to 257

The remaining lines, values ahead:

melting point [°C] | Structure (SMILES)
207 to 208 | Fc1ccc2c(c1)CCC2Nc1nc2ccccc2[nH]1 (stereo not shown) [Example 7, N-(Benzimidazol-2-yl)-5-fluoro-1-indanylamine]
242 to 243 | Clc1ccc2c(c1)CCC2Nc1nc2ccccc2[nH]1 (stereo not shown) [Example 8, N-(Benzimidazol-2-yl)-5-chloro-1-indanylamine]
242 to 243 | Brc1ccc2c(c1)CCC2Nc1nc2ccccc2[nH]1 (stereo not shown) [Example 9, N-(Benzimidazol-2-yl)-5-bromo-1-indanylamine]
203 to 205 | c1ccc2c(c1)CCCCC2Nc1nc2ccccc2[nH]1 (stereo not shown) [Example 15, N-(Benzimidazol-2-yl)-6,7,8,9-tetrahydro-5H-benzocyclohepten-5-ylamine]
250 to 252 | Cc1cc(C)c2c(c1)C(Nc1nc3ccccc3[nH]1)CCC2 (stereo not shown) [Example 19, N-(Benzimidazol-2-yl)-5,7-dimethyl-1,2,3,4-tetrahydro-1-naphthylamine]
121 to 124 | Cc1cc2nc(N[C@@H]3CCCc4ccccc43)[nH]c2cc1C [Example 23, (R)-N-(5,6-Dimethylbenzimidazol-2-yl)-1,2,3,4-tetrahydro-1-naphthylamine]
220 to 221 | Fc1ccc2nc(NC3CCCc4ccccc43)[nH]c2c1 (stereo not shown) [Example 24, N-(5-Fluorobenzimidazol-2-yl)-1,2,3,4-tetrahydro-1-naphthylamine]
181 | Fc1ccc2c(c1)C(Nc1nc3ccccc3[nH]1)CCC2 (stereo not shown) [Example 26, N-(Benzimidazol-2-yl)-7-fluoro-1,2,3,4-tetrahydro-1-naphthylamine]
